Laboratory results as given in patent publication US6737383B1, “Herbicidal oxadiazolidines” (priority 1999, dated 2004).

Assays:
bedstraw = experiment: Test B pre/postemergence bedstraw; assay type: in vivo, Galium aparine
In short: (§1)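 Herbicidal effect was estimated by eye on a ten-point control scale after plants spent twelve to sixteen days in a greenhouse following soil or foliar treatment. Foliar sprays targeted plants at one to four leaves; all doses were formulated in a non-phytotoxic solvent with surfactant.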

blackgrass = experiment: Test B pre/postemergence blackgrass; assay type: in vivo, Alopecurus myosuroides
In short: as §1

surinam grass = experiment: Test B pre/postemergence surinam grass; assay type: in vivo, Brachiaria decumbens
In short: as §1

cocklebur = experiment: Test B pre/postemergence cocklebur; assay type: in vivo, Xanthium strumarium
In short: as §1

corn = experiment: Test B pre/postemergence corn; assay type: in vivo, Zea mays
In short: as §1

crabgrass = experiment: Test B pre/postemergence crabgrass; assay type: in vivo, Digitaria sanguinalis
In short: as §1

giant foxtail = experiment: Test B pre/postemergence giant foxtail; assay type: in vivo, Setaria faberii
In short: as §1

morningglory = experiment: Test B pre/postemergence morningglory; assay type: in vivo, Ipomoea hederacea
In short: as §1

pigweed = experiment: Test B pre/postemergence pigweed; assay type: in vivo, Amaranthus retroflexus
In short: as §1

rape = experiment: Test B pre/postemergence rape; assay type: in vivo, Brassica napus
In short: as §1

soybean = experiment: Test B pre/postemergence soybean; assay type: in vivo, Glycine max
In short: as §1

sugar beet = experiment: Test B pre/postemergence sugar beet; assay type: in vivo, Beta vulgaris
In short: as §1

velvetleaf = experiment: Test B pre/postemergence velvetleaf; assay type: in vivo, Abutilon theophrasti
In short: as §1

wheat = experiment: Test B pre/postemergence wheat; assay type: in vivo, Triticum aestivum
In short: as §1

wild oat = experiment: Test B pre/postemergence wild oat; assay type: in vivo, Avena fatua
In short: as §1

purple nutsedge = experiment: Test B pre/postemergence purple nutsedge; assay type: in vivo, Cyperus rotundus
In short: as §1

[1] = Postemergence, Rate 62 g/ha, scale of 0 to 10, 0 is no effect, 10 is complete control
[2] = Postemergence, Rate 125 g/ha, scale 0 to 10, 0 is no effect, 10 is complete control
[3] = Postemergence, Rate 500 g/ha, scale 0 to 10, 0 is no effect, 10 is complete control
[4] = Preemergence, Rate 125 g/ha, scale 0 to 10, 0 is no effect, 10 is complete control
[5] = Preemergence, Rate 500 g/ha, scale of 0 to 10 where 0 is no effect and 10 is complete control
[6] = Rate 250 g/ha, Postemergence, scale of 0 to 10 where 0 is no effect and 10 is complete control
[7] = Preemergence, Rate 62 g/ha, scale 0 to 10 (0 no effect, 10 complete control)

CC(C)N(C(=O)n1oc(=O)n(CCCCF)c1=O)c1ccc(Cl)cc1 [Compound 551]
Bedstraw plant response rating (bedstraw; [1]): 0
Bedstraw plant response rating (bedstraw; [2]): 0
Plant response rating, Bedstraw (bedstraw; [3]): 9
Bedstraw plant response rating (bedstraw; [4]): 8
Bedstraw plant response rating (bedstraw; [5]): 10
Plant response rating, Bedstraw (bedstraw; [6]): 4
Blackgrass plant response rating (blackgrass; [1]): 4
Blackgrass plant response rating (blackgrass; [2]): 7
Plant response rating, Blackgrass (blackgrass; [3]): 7
Blackgrass plant response rating (blackgrass; [7]): 3
Blackgrass plant response rating (blackgrass; [4]): 7
Blackgrass plant response rating (0 to 10 scale) (blackgrass; Preemergence, Rate 250 g/ha): 9
Blackgrass plant response rating (blackgrass; [5]): 9
Plant response rating, Blackgrass (blackgrass; [6]): 7
B. signalgrass plant response rating (surinam grass; [1]): 0
B. signalgrass plant response rating (surinam grass; [2]): 0
Plant response rating, B. signalgrass (surinam grass; [3]): 4
B. signalgrass plant response rating (surinam grass; [7]): 4
B. signalgrass plant response rating (surinam grass; [4]): 9
B. signalgrass plant response rating (0 to 10 scale, 0 is no effect, 10 is complete control) (surinam grass; Preemergence, Rate 250 g/ha): 9
B. signalgrass plant response rating (surinam grass; [5]): 9
Plant response rating, B. signalgrass (surinam grass; [6]): 2
Cocklebur plant response rating (cocklebur; [1]): 0
Cocklebur plant response rating (cocklebur; [2]): 0
Plant response rating, Cocklebur (cocklebur; [3]): 0
Cocklebur plant response rating (cocklebur; [7]): 0
Cocklebur plant response rating (cocklebur; [4]): 0
Cocklebur plant response rating (0 to 10 scale) (cocklebur; Preemergence, Rate 250 g/ha): 0
Cocklebur plant response rating (cocklebur; [5]): 0
Plant response rating, Cocklebur (cocklebur; [6]): 0
Corn plant response rating (corn; [1]): 0
Corn plant response rating (corn; [2]): 0
Plant response rating, Corn (corn; [3]): 0
Corn plant response rating (corn; [7]): 0
Corn plant response rating (corn; [4]): 0
Corn plant response rating (0 to 10 scale) (corn; Preemergence, Rate 250 g/ha): 0
Corn plant response rating (corn; [5]): 5
Plant response rating, Corn (corn; [6]): 0
Crabgrass plant response rating (crabgrass; [1]): 0
Crabgrass plant response rating (crabgrass; [2]): 6
Plant response rating, Crabgrass (crabgrass; [3]): 9
Crabgrass plant response rating (crabgrass; [7]): 9
Crabgrass plant response rating (crabgrass; [4]): 9
Crabgrass plant response rating (0 to 10 scale) (crabgrass; Preemergence, Rate 250 g/ha): 10
Crabgrass plant response rating (crabgrass; [5]): 10
Plant response rating, Crabgrass (crabgrass; [6]): 8
Giant foxtail plant response rating (giant foxtail; [1]): 0
Plant response rating, Giant foxtail (giant foxtail; [3]): 5
Giant foxtail plant response rating (giant foxtail; [7]): 10
Giant foxtail plant response rating (giant foxtail; [4]): 10
Giant foxtail plant response rating (0 to 10 scale) (giant foxtail; Preemergence, Rate 250 g/ha): 10
Giant foxtail plant response rating (giant foxtail; [5]): 10
Plant response rating, Giant foxtail (giant foxtail; [6]): 5
Morningglory plant response rating (morningglory; [1]): 1
Morningglory plant response rating (morningglory; [2]): 2
Plant response rating, Morningglory (morningglory; [3]): 3
Morningglory plant response rating (morningglory; [7]): 0
Morningglory plant response rating (morningglory; [4]): 0
Morningglory plant response rating (0 to 10 scale) (morningglory; Preemergence, Rate 250 g/ha): 0
Morningglory plant response rating (morningglory; [5]): 0
Plant response rating, Morningglory (morningglory; [6]): 4
Redroot pigweed plant response rating (pigweed; [1]): 0
Plant response rating, Redroot pigweed (pigweed; [3]): 7
Redroot pigweed plant response rating (pigweed; [7]): 8
Redroot pigweed plant response rating (pigweed; [4]): 9
Redroot pigweed plant response rating (0 to 10 scale) (pigweed; Preemergence, Rate 250 g/ha): 10
Redroot pigweed plant response rating (pigweed; [5]): 10
Plant response rating, Redroot pigweed (pigweed; [6]): 3
Rape plant response rating (rape; [1]): 3
Rape plant response rating (rape; [2]): 7
Plant response rating, Rape (rape; [3]): 5
Rape plant response rating (rape; [7]): 0
Rape plant response rating (rape; [4]): 3
Rape plant response rating (0 to 10 scale) (rape; Preemergence, Rate 250 g/ha): 3
Rape plant response rating (rape; [5]): 9
Plant response rating, Rape (rape; [6]): 7
Soybean plant response rating (soybean; [1]): 2
Plant response rating, Soybean (soybean; [3]): 3
Soybean plant response rating (soybean; [7]): 0
Soybean plant response rating (soybean; [4]): 0
Soybean plant response rating (0 to 10 scale) (soybean; Preemergence, Rate 250 g/ha): 0
Soybean plant response rating (soybean; [5]): 0
Plant response rating, Soybean (soybean; [6]): 3
Sugarbeets plant response rating (sugar beet; [1]): 2
Plant response rating, Sugarbeets (sugar beet; [3]): 8
Sugarbeets plant response rating (sugar beet; [7]): 2
Sugarbeets plant response rating (sugar beet; [4]): 6
Sugarbeets plant response rating (0 to 10 scale) (sugar beet; Preemergence, Rate 250 g/ha): 7
Sugarbeets plant response rating (sugar beet; [5]): 9
Plant response rating, Sugarbeets (sugar beet; [6]): 5
Velvetleaf plant response rating (velvetleaf; [1]): 0
Plant response rating, Velvetleaf (velvetleaf; [3]): 3
Velvetleaf plant response rating (velvetleaf; [7]): 0
Velvetleaf plant response rating (velvetleaf; [4]): 0
Velvetleaf plant response rating (0 to 10 scale) (velvetleaf; Preemergence, Rate 250 g/ha): 2
Velvetleaf plant response rating (velvetleaf; [5]): 4
Plant response rating, Velvetleaf (velvetleaf; [6]): 3
Wheat plant response rating (wheat; [1]): 0
Plant response rating, Wheat (wheat; [3]): 3
Wheat plant response rating (wheat; [7]): 0
Wheat plant response rating (wheat; [4]): 0
Wheat plant response rating (0 to 10 scale) (wheat; Preemergence, Rate 250 g/ha): 3
Wheat plant response rating (wheat; [5]): 6
Plant response rating, Wheat (wheat; [6]): 0
Wild oats plant response rating (wild oat; [1]): 0
Plant response rating, Wild oats (wild oat; [3]): 5
Wild oats plant response rating (wild oat; [7]): 0
Wild oats plant response rating (wild oat; [4]): 3
Wild oats plant response rating (0 to 10 scale) (wild oat; Preemergence, Rate 250 g/ha): 3
Wild oats plant response rating (wild oat; [5]): 9
Plant response rating, Wild oats (wild oat; [6]): 0
Plant response rating, Nutsedge (purple nutsedge; [3]): 0
Nutsedge plant response rating (purple nutsedge; [7]): 0
Nutsedge plant response rating (purple nutsedge; [4]): 0
Nutsedge plant response rating (0 to 10 scale) (purple nutsedge; Preemergence, Rate 250 g/ha): 0
Nutsedge plant response rating (purple nutsedge; [5]): 0
